Measurements taken from US7994320B2, “Narcistatin prodrugs” (priority 2002, dated 2011).

Assays:
[1] = test system: KM20L2; assay: Human cancer cell line growth inhibition, colon KM20L2; type: cell-based
Protocol: (§1) Narciclasine cyclic phosphate prodrugs 3a-o were evaluated against a minipanel of human cancer cell lines and the murine P388 lymphocytic leukemia. The GI50 0.1-0.02 μg/ml strong activity range parallels that already reported for the parent, narciclasine (1). (Pettit, G. R.; Melody, N.; Herald, D. L. J. Org. Chem. 2001, 66, 2583-2587.)

[2] = test system: BXPC-3; assay: Human cancer cell line growth inhibition, pancreas BXPC-3; type: cell-based
Protocol: as §1

[3] = test system: NCI-H460; assay: Human cancer cell line growth inhibition, lung NCI-H460; type: cell-based
Protocol: as §1

[4] = test system: MCF-7; assay: Human cancer cell line growth inhibition, breast MCF-7; type: cell-based
Protocol: as §1

[5] = test system: DU-145; assay: Human cancer cell line growth inhibition, prostate DU-145; type: cell-based
Protocol: as §1

[6] = test system: SF 268; assay: Human cancer cell line growth inhibition, CNS SF 268; type: cell-based
Protocol: as §1

[7] = Solubility in water; conditions: solvent not stated
[8] = test system: M5076 sarcoma; conditions: U.S. National Cancer Institute research; cited from earlier work
[9] = test system: Erlich asciter cancer cells; conditions: cited from earlier work
[10] = test system: P388 lymphocytic leukemia; conditions: U.S. National Cancer Institute research; cited from earlier work

| Compound | GI50 Colon KM20L2 [1] | GI50 Pancreas-a BXPC-3 [2] | GI50 Lung-NSC NCI-H460 [3] | GI50 Breast MCF-7 [4] | GI50 Prostate DU-145 [5] | GI50 CNS SF 268 [6] | solubility [7] | activity against in vivo growth of M5076 sarcoma [8] | inhibition of protein synthesis [9] | activity against in vivo growth of P388 lymphocytic leukemia [10] |
| --- | --- | --- | --- | --- | --- | --- | --- | --- | --- | --- |
| Magnesium Narcistatin [Compound 3g] | 0.31 µg/mL | 0.19 µg/mL | 0.29 µg/mL | 0.25 µg/mL | 0.1 µg/mL | 0.14 µg/mL |  |  |  |  |
| Narcistatin [Compound 3b] | 0.53 µg/mL | 0.33 µg/mL | 0.47 µg/mL | 0.35 µg/mL | 0.16 µg/mL | 0.22 µg/mL |  |  |  |  |
| Cesium Narcistatin [Compound 3f] | 0.66 µg/mL | 0.41 µg/mL | >1 µg/mL | 0.62 µg/mL | 0.13 µg/mL | 0.33 µg/mL |  |  |  |  |
| Piperazinium Narcistatin [Compound 3o] | 0.22 µg/mL | 0.1 µg/mL | 0.24 µg/mL | 0.17 µg/mL | 0.032 µg/mL | 0.099 µg/mL |  |  |  |  |
| O=C1N[C@@H]2C(=C[C@H](O)[C@H]3OP(=O)(O)O[C@H]32)c2cc3c(c(O)c21)OCO3.c1ccncc1 [Compound 3a, Pyridinium Narcistatin] | 0.34 µg/mL | 0.22 µg/mL | 0.27 µg/mL | 0.27 µg/mL | 0.17 µg/mL | 0.15 µg/mL |  |  |  |  |
| Sodium Narcistatin [Compound 3d] | 0.45 µg/mL | 0.32 µg/mL | >1 µg/mL | 0.56 µg/mL | 0.12 µg/mL | 0.23 µg/mL |  |  |  |  |
| C1COCCN1.O=C1N[C@@H]2C(=C[C@H](O)[C@H]3OP(=O)(O)O[C@H]32)c2cc3c(c(O)c21)OCO3 [Compound 3n, Morpholinium Narcistatin] | 0.54 µg/mL | 0.25 µg/mL | >1 µg/mL | 0.48 µg/mL | 0.14 µg/mL | 0.24 µg/mL |  |  |  |  |
| O=C1NC2C(=CC(O)C3OP(=O)([O-])OC23)c2cc3c(c(O)c21)OCO3.O=C1NC2C(=CC(O)C3OP(=O)([O-])OC23)c2cc3c(c(O)c21)OCO3.[Mn+2] (stereo not shown) [Compound 3j, Manganese Narcistatin] | 0.13 µg/mL | 0.049 µg/mL | 0.15 µg/mL | 0.07 µg/mL | 0.034 µg/mL | 0.04 µg/mL |  |  |  |  |
| Zinc Narcistatin [Compound 3i] | 0.16 µg/mL | 0.069 µg/mL | 0.21 µg/mL | 0.14 µg/mL | 0.016 µg/mL | 0.053 µg/mL |  |  |  |  |
| Potassium Narcistatin [Compound 3e] | 0.56 µg/mL | 0.36 µg/mL | 0.67 µg/mL | 0.4 µg/mL | 0.26 µg/mL | 0.19 µg/mL |  |  |  |  |
| Lithium Narcistatin [Compound 3c] | 0.26 µg/mL | 0.25 µg/mL | 0.3 µg/mL | 0.31 µg/mL | 0.13 µg/mL | 0.17 µg/mL |  |  |  |  |
| Imidazolium Narcistatin [Compound 3m] | >1 µg/mL | 0.45 µg/mL | >1 µg/mL | 0.9 µg/mL | 0.44 µg/mL | 0.38 µg/mL |  |  |  |  |
| C=C[C@@H]1CN2CC[C@@H]1C[C@H]2[C@@H](O)c1ccnc2ccc(OC)cc12.O=C1N[C@@H]2C(=C[C@H](O)[C@H]3OP(=O)(O)O[C@H]32)c2cc3c(c(O)c21)OCO3 [Compound 3k, Quinidinium Narcistatin] | 0.58 µg/mL | 0.31 µg/mL | 0.77 µg/mL | 0.5 µg/mL | 0.22 µg/mL | 0.25 µg/mL |  |  |  |  |
| C=C[C@@H]1CN2CC[C@@H]1C[C@@H]2[C@H](O)c1ccnc2ccc(OC)cc12.O=C1N[C@@H]2C(=C[C@H](O)[C@H]3OP(=O)(O)O[C@H]32)c2cc3c(c(O)c21)OCO3 [Compound 3l, Quininium Narcistatin] | 0.12 µg/mL | 0.051 µg/mL | 0.17 µg/mL | 0.12 µg/mL | 0.013 µg/mL | 0.045 µg/mL |  |  |  |  |
| O=C1N[C@@H]2C(=C[C@H](O)[C@@H](O)[C@H]2O)c2cc3c(c(O)c21)OCO3 [narciclasine (1), narciclasine] |  |  |  |  |  |  | sparingly soluble | active | inhibit protein synthesis | active |
| Calcium Narcistatin [Compound 3h] | 0.059 µg/mL | 0.045 µg/mL | 0.12 µg/mL | 0.059 µg/mL | 0.0093 µg/mL | 0.031 µg/mL |  |  |  |  |
